For this experiment, the system named is HIV. Description: HIV MT4 Assay (antiviral HIV activity in MT-4 cells). Format: cell-based. Here is the method:
Antiviral HIV activity and cytotoxicity values for compounds of the invention from Table 1 were measured in parallel in the HTLV-1 transformed cell line MT-4 based on the method previously described (Hazen et al., 2007, In vitro antiviral activity of the novel, tyrosyl-based human immunodeficiency virus (HIV) type 1 protease inhibitor brecanavir (GW640385) in combination with other antiretrovirals and against a panel of protease inhibitor-resistant HIV (Hazen et al., “In vitro antiviral activity of the novel, tyrosyl-based human immunodeficiency virus (HIV) type 1 protease inhibitor brecanavir (GW640385) in combination with other antiretrovirals and against a panel of protease inhibitor-resistant HIV”, Antimicrob. Agents Chemother. 2007, 51: 3147-3154; and Pauwels et al., “Sensitive and rapid assay on MT-4 cells for the detection of antiviral compounds against the AIDS virus”, (J. of Virological Methods 1987, 16: 171-185).
Luciferase activity was measured 96 hours later by adding a cell titer glo (Promega, Madison, Wis.). Percent inhibition of cell protection data was plotted relative to no compound control. Under the same condition, cytotoxicity of the compounds was determined using cell titer Glo™ (Promega, Madison, Wis.). IC50s were determined from a 10 point dose response curve using 3-4-fold serial dilution for each compound, which spans a concentration range >1000 fold.
These values are plotted against the molar compound concentrations using the standard four parameter logistic equation: y=((Vmax*x^n)/(K^n+x^n))+Y^2
Y^2=minimum y n=slope factor
Vmax=maximum y x=compound concentration [M]

The mark [1] stands for this setting: Human immunodeficiency virus 1, MT4, HTLV-1 transformed cell line MT-4, luciferase activity measured 96 hours later, Table 3, read-out: HIV MT4 Assay IC50.
The mark [2] stands for this setting: MT4, 96 h, read-out: MT4 (IC50).

Results on ten compounds are retold here after patent US9012642B2, “Pyrrolopyridinone compounds and methods for treating HIV” (ViiV Healthcare UK Limited, priority 2011, dated 2015).

Usually IC50 stands for the concentration that inhibits the measured activity by half.

Structures are written as SMILES. Read-outs that look alike come from different tables or passages of the source.

Turning to `Cc1c(-c2c(C(OC(C)(C)C)C(=O)O)n(C)c(=O)c3c2ccn3Cc2ccc(F)cc2)ccc2c1CCCO2` (atropisomer, axis not shown; (M)) [Example 41, (S)(M)-2-(tert-butoxy)-2-(1-(4-fluorobenzyl)-6-methyl-4-(5-methylchroman-6-yl)-7-oxo-6,7-dihydro-1H-pyrrolo[2,3-c]pyridin-5-yl)acetic acid], the IC50 under setting [1] was found to be 10 nM and the IC50 under setting [2] came to 10 nM.
For `COc1ccc(Cn2ccc3c(-c4ccc5c(c4C)CCCO5)c(C(OC(C)(C)C)C(=O)O)n(C)c(=O)c32)cc1` (atropisomer, axis not shown; (M)) [Example 53, (S)(M)-2-(tert-butoxy)-2-(1-(4-methoxybenzyl)-6-methyl-4-(5-methylchroman-6-yl)-7-oxo-6,7-dihydro-1H-pyrrolo[2,3-c]pyridin-5-yl)acetic acid], the IC50 was determined as 10 nM under setting [1] and 10 nM under setting [2].
As to `Cn1c(C(OC(C)(C)C)C(=O)O)c(-c2ccc(Cl)cc2)c2ccn(Cc3ccccc3)c2c1=O` (centres unmarked) [Example 1, 2-(1-benzyl-4-(4-chlorophenyl)-6-methyl-7-oxo-6,7-dihydro-1H-pyrrolo[2,3-c]pyridin-5-yl)-2-(tert-butoxy)acetic acid], the IC50 reads like this: under setting [1], 220 nM; under setting [2], 220 nM.
Consider `Cn1c(C(OC(C)(C)C)C(=O)O)c(-c2ccc(Cl)cc2)c2ccn(Cc3ccc(F)cc3)c2c1=O` (centres unmarked) [Example 2, 2-(tert-butoxy)-2-(4-(4-chlorophenyl)-1-(4-fluorobenzyl)-6-methyl-7-oxo-6,7-dihydro-1H-pyrrolo[2,3-c]pyridin-5-yl)acetic acid], for which the half-inhibitory concentration (IC50) is, setting by setting: under setting [1], 160 nM; under setting [2], 160 nM.
As for `COc1ccc(Cn2ccc3c(-c4ccc(Cl)cc4)c(C(OC(C)(C)C)C(=O)O)n(C)c(=O)c32)cc1` (centres unmarked) [Example 3, 2-(tert-butoxy)-2-(4-(4-chlorophenyl)-1-(4-methoxybenzyl)-6-methyl-7-oxo-6,7-dihydro-1H-pyrrolo[2,3-c]pyridin-5-yl)acetic acid], the IC50 under setting [1] is 460 nM and the IC50 under setting [2] stood at 460 nM.
On to `COCCn1ccc2c(-c3ccc(Cl)cc3)c(C(OC(C)(C)C)C(=O)O)n(C)c(=O)c21` (centres unmarked) [Example 4, 2-(tert-butoxy)-2-(4-(4-chlorophenyl)-1-(2-methoxyethyl)-6-methyl-7-oxo-6,7-dihydro-1H-pyrrolo[2,3-c]pyridin-5-yl)acetic acid], for which the IC50 is, setting by setting: under setting [1], 1550 nM; under setting [2], 1550 nM.
Turning to `CC(C)Cn1ccc2c(-c3ccc(Cl)cc3)c(C(OC(C)(C)C)C(=O)O)n(C)c(=O)c21` (centres unmarked) [Example 5, 2-(tert-butoxy)-2-(4-(4-chlorophenyl)-1-isobutyl-6-methyl-7-oxo-6,7-dihydro-1H-pyrrolo[2,3-c]pyridin-5-yl)acetic acid], the IC50 under setting [1] was found to be 5000 nM and the IC50 under setting [2] turned out to be 5000 nM.
In the case of `Cn1c([C@H](OC(C)(C)C)C(=O)O)c(-c2ccc(Cl)cc2)c2ccn(Cc3ccc(F)c(F)c3)c2c1=O` [Example 6, (S)-2-(tert-butoxy)-2-(4-(4-chlorophenyl)-1-(3,4-difluorobenzyl)-6-methyl-7-oxo-6,7-dihydro-1H-pyrrolo[2,3-c]pyridin-5-yl)acetic acid], the IC50 under setting [1] came out at 140 nM and the IC50 under setting [2] amounted to 140 nM.
In the case of `Cn1c(C(OC(C)(C)C)C(=O)O)c(-c2ccc(Cl)cc2)c2ccn(CCN3CCCCC3)c2c1=O` (centres unmarked) [Example 7, 2-(tert-butoxy)-2-(4-(4-chlorophenyl)-6-methyl-7-oxo-1-(2-(piperidin-1-yl)ethyl)-6,7-dihydro-1H-pyrrolo[2,3-c]pyridin-5-yl)acetic acid], the IC50 by setting is: under setting [1], 1000 nM; under setting [2], 1000 nM.
Take `Cn1c(C(OC(C)(C)C)C(=O)O)c(-c2ccc(Cl)cc2)c2ccn(Cc3cc(F)ccc3F)c2c1=O` (centres unmarked) [Example 8, 2-(tert-butoxy)-2-(4-(4-chlorophenyl)-1-(2,5-difluorobenzyl)-6-methyl-7-oxo-6,7-dihydro-1H-pyrrolo[2,3-c]pyridin-5-yl)acetic acid]: the IC50 reads like this: under setting [1], 130 nM; under setting [2], 130 nM.
